For series [1], the target named is T1, recombinant human HDAC1 enzyme (Homo sapiens, UniProt Q13547).
T1 construct: purchased Enzo Life Sciences, Inc. USA
The series is described as follows: HDAC1 enzyme inhibition assay. The format is biochemical. The protocol: The HDAC1 and 6 assays were carried out with few modifications from the previously described method. In brief, 10 µl of different concentration of test compounds was added to 40 µl of reaction mixture containing HDAC assay buffer, HDAC substrate, and recombinant human HDAC1 and 6 enzymes. The reactions were incubated for 30 min at 37°C. Then, 50 µl of trypsin stop solution was added in each well, and the plate was incubated at room temperature for an additional 20 min. Fluorescence intensity was measured at an excitation of 360 nm and an emission of 460 nm using a fluorescence microplate reader (FLx800, BioTek Instruments Inc. Winooski, VT, USA).

The test system of another series is DMH-induced colon cancer. The format is in vivo, Wistar rats. Conditions: for ACF/5 cm^2 / Adenocarcinoma: 21 days treatment, quercetin, QMJ-2, QMJ-5 100 mg/kg p.o., mean ± SEM of six animals; for ACF/5 cm^2: DMH control 25 ± 2.1; for Adenocarcinoma: count in colon, DMH control 17 ± 1.7; for spleen index / kidney index / liver index: rat, in vivo, po, 100 mg/kg. Here is the method: The two test compounds (QMJ-2 and QMJ-5) and quercetin were suspended in 0.25% w/v sodium carboxymethyl cellulose (CMC) and were administered orally (p.o.). 5-Fluorouracil (5-FU) which was used as a standard was procured in the form of injection and was administered intraperitonially (i.p.).
Colon cancer in experimental animals was induced using the highly specific carcinogen DMH, with few modifications from the previously described procedure. DMH was administered at a dose of 30 mg/kg i.p. once a week for 20 weeks. The incidence of aberrant crypt foci (ACF) and adenocarcinoma were confirmed by sacrificing few animals after 20 weeks of induction with DMH. Furthermore, the animals were randomized into five experimental groups, and various treatments were administered for a period of 21 days followed by the assessment of different parameters in the experimental animals.
(1) Experimental Groups • Group 1: animals received 0.25% CMC in water p.o. • Group 2: animals received 0.25% CMC in water p.o. (DMH control) • Group 3: animals received 5-FU at 10 mg/kg i.p. • Group 4: animals received quercetin at 100 mg/kg p.o. • Group 5: animals received QMJ-2 at 100 mg/kg p.o. • Group 6: animals received QMJ-5 at 100 mg/kg p.o.
(2) ACF Formation and Adenocarcinoma Incidence. The entire colon was excised from the experimental animals and was used to study the incidence of adenocarcinoma. The count and size were noted from each animal. For ACF formation, the distal part of the colon was excised, and the tissue was then cut open and fixed with 10% buffered formalin for 12 h. Following this, the tissue was stained with 0.1% methylene blue in PBS for 5 min. The tissues were then observed under microscope for ACF formation and were calculated as the number of counts/5 cm^2 in colon tissue.
(3) Colon Weight/Length Ratio and Organ Index. Length of the excised colon was measured in centimeters, and weight was measured in g. Colon weight/length ratio was then calculated. For the determination of organ index, major organs including spleen, liver, and kidney of the experimental animals were weighed in g and the respective index was calculated. […]

A further series relates to VERO cells. Put plainly: MTT cytotoxicity assay, Vero. The format is cell-based, African green monkey. The settings on record: Chlorocebus sabaeus, 48 h, mean ± SEM of three experiments. Here is the method:
(§1) Human colorectal carcinoma cell line (HCT116) and African green monkey kidney epithelial cells (VERO) were obtained from National Centre for Cell Science, Pune, MH, India. For their maintenance, the cells were grown in Dulbecco's Modified Eagle's Medium (DMEM) which was supplemented with 10% fetal bovine serum (FBS) and 1 × penicillin/streptomycin at 37°C in CO2 incubator (NU-5501E/G, NuAire Inc., Plymouth, MN, USA) in a humidified atmosphere of 5% CO2 and 95% air.
(§2) Cytotoxicity for the synthesized analogues was determined using MTT assay. In brief, HCT116 and VERO cells were harvested from the tissue culture flask and seeded in sterile 96 well plates at a density of 5000 cells per well. After overnight adherence, different concentrations of test compounds were added and incubated for 48 h. Next, 50 µl of the MTT reagent (HiMedia Laboratories, Mumbai, India) (2 mg/ml in the sterile phosphate buffer saline (PBS)) was added into each well and incubated for 3 h. The formazan crystals formed were solubilized using 100% dimethyl sulfoxide (DMSO), and the optical density was measured at 540 nm using the microplate reader (ELx800, BioTek Instruments Inc., Winooski, VT, USA).
In general terms: Tetrazolium assays rely on reduction of a dye to a coloured formazan, in cell work by metabolically active cells.

Another series has as its system HCT116 cells. The series is described as follows: MTT cytotoxicity assay, HCT116. The format is cell-based, human. Conditions: for IC50: Homo sapiens, HCT-116, 48 h, mean ± SEM of three experiments; for cytotoxicity in HCT116 relative to inhibitory concentration in normal (Vero) cell line: HCT116 vs Vero. The protocol:
as §1, §2

In a further series the test system is HDAC8. The series is described as follows: Western blotting, HDAC8 expression. The format is cell-based, human. The settings on record: HCT116 cells, 24 h, compared to normal control. Here is the method: (§3) After various treatments for 24 h, cells were lysed, and protein quantification of the lysates was estimated using the BCA™ kit (Thermo Fisher Scientific Inc., Waltham, MA, USA). Proteins samples (30 µg) were resolved on a 10% SDS-PAGE and transferred onto a PVDF membrane and blocked with 5% nonfat milk in TBST (tris-buffered saline with Tween-20) buffer for 1 h followed by washing in TBST buffer. The membrane was then probed with primary antibodies (GAPDH, HDAC8, p21^Waf1/Cip1, and acetyl-histone H3[Ac-Lys^9]) and incubated overnight at 4°C. The membrane was washed with TBST buffer and incubated with horseradish peroxidase-conjugated secondary antibody for 1 h at room temperature. Signal was captured using SuperSignal™ West Pico Plus chemiluminescent substrate (Thermo Fischer Scientific Inc., Waltham, MA, USA) on gel documentation system (G : BOX Chemi XRQ, Syngene).

Series [2] concerns HDAC enzyme in HCT116 cells. Put plainly: Whole cell HDAC inhibition assay. The format is cell-based. Conditions: Homo sapiens, HCT-116, HCT116, 18 h treatment, mean ± SEM of three experiments. The protocol: Confluent HCT116 cells were harvested and seeded in 96 well sterile black well plates at a density of 2000 cells per well and incubated overnight. Furthermore, the cells were treated with different concentrations of test compounds for a period of 18 h followed by the addition of […] BOC-Ac-Lys-AMC substrate and incubated for 1 h. […] The reaction was then allowed to proceed for 15 min at 37°C. Finally, the fluorescence intensity was measured at 360 nm excitation and 460 nm emission using a fluorescence microplate reader (FLx800, BioTek Instruments Inc., Winooski, VT, USA).

The test system of another series is p21^Waf1/Cip1. Put plainly: Western blotting, p21Waf1/Cip1 expression. The format is cell-based, human. Conditions: HCT116 cells, 24 h, compared to normal control. Here is the method: as §3
(Immunoblotting shows a protein as a band on a membrane.)

[3] abbreviates: mean ± SEM of three experiments, read-out: HDAC1 IC50.

We go through three compounds from PMC6327263, “Evaluation of Novel 3-Hydroxyflavone Analogues as HDAC Inhibitors against Colorectal Cancer” (Advances in Pharmacological Sciences, 2018).

Several values for one entry are separate records, joined by “and”; a condition that tells them apart may be missing. Identical values can stand only once. Like-named read-outs stand apart in the source and are kept apart here. Marks after values point to notes of the source that are not given here.

T1 sequence (Q13547 whole entry): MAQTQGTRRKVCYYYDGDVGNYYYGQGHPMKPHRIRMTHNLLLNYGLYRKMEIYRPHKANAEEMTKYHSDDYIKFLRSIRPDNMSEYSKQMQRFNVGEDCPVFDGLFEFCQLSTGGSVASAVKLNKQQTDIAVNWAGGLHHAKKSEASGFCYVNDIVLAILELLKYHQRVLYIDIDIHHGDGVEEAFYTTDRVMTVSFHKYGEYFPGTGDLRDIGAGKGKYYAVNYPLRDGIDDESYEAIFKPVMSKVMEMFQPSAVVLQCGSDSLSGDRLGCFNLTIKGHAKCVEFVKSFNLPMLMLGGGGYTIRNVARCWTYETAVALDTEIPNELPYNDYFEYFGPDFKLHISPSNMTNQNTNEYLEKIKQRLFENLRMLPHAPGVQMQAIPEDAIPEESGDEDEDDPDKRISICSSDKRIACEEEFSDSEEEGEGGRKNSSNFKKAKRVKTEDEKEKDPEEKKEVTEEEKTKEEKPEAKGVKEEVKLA

For the compound `O=c1c(O)c(-c2ccc(O)c(O)c2)oc2cc(O)cc(O)c12` [Quercetin, quercetin, reference compound], the half-inhibitory concentration (IC50) (as a rule, the concentration at which inhibition is half-maximal) came out at 26.7 ± 3.77 µM in series [1] (HDAC1 IC50, mean ± SEM of three experiments); 202 ± 7.5 µM in the series with VERO cells; 108 ± 1.2 µM in the series on HCT116 cells; 168 ± 6.9 µM in series [2]. The “ACF/5 cm^2” value in the series on DMH-induced colon cancer (5-FU 10 mg/kg i.p.) is reported as 19 ± 2.6 /5 cm^2. Moreover, in the series with DMH-induced colon cancer (5-FU 10 mg/kg i.p.), the Adenocarcinoma is listed as 15 ± 1.1. In the series with DMH-induced colon cancer, the spleen index result is reported as “significant decrease”. Moreover, the HDAC8 expression entry in the series with HDAC8 is “significant reduction”.

Consider `Cc1ccc(-c2oc3ccccc3c(=O)c2O)cc1` [QMJ-2, 3-Hydroxy-2-(4-methylphenyl)-4H-1-benzopyran-4-one], for which the IC50 in series [1] (setting [3]) stood at 34.1 ± 3.83 µM. Also, in the series with DMH-induced colon cancer (5-FU 10 mg/kg i.p.), the “ACF/5 cm^2” value is 16 ± 2.1 /5 cm^2 and 16 ± 2.1^a /5 cm^2; the Adenocarcinoma is on record as 14 ± 1.3. Also, the colon weight/length ratio entry with DMH-induced colon cancer (compared with DMH control, 5-FU 10 mg/kg i.p., others 100 mg/kg p.o., 21 days) is “significant decrease”. Moreover, in the series on DMH-induced colon cancer, the kidney index result is “no significant change”, the liver index entry was “Significant reduction” and the spleen index result is “significant decrease”. Also, the midpoint of inhibition with VERO cells, the IC50, lay at 140 ± 6.8 µM. For the same compound, the “expression of p21^Waf1/Cip1” value in the series with p21^Waf1/Cip1 was “increased”. In the series with HCT116 cells, the “cytotoxicity in HCT116 relative to inhibitory concentration in normal (Vero) cell line” value is “two-fold lower concentration” and the IC50 was 68 ± 2.3 µM. This compound registered an IC50 in series [2] of 182 ± 22 µM.

For the compound `Cc1ccc(-c2oc3cc(C)ccc3c(=O)c2O)cc1` [QMJ-5, 3-Hydroxy-7-methyl-2-(4-methylphenyl)-4H-1-benzopyran-4-one], in series [1] (setting [3]), the IC50 stood at 47.7 ± 6.3 µM. In the series with DMH-induced colon cancer (5-FU 10 mg/kg i.p.), the “ACF/5 cm^2” value is 15 ± 2.6 /5 cm^2 and 15 ± 2.6^a /5 cm^2; the Adenocarcinoma is reported as 11 ± 0.8^a. Also, in the series with DMH-induced colon cancer, the kidney index result is recorded as “no significant change” and the liver index entry is listed as “Significant reduction”. In the series on VERO cells, this compound displayed an IC50 of 55.6 ± 3.8 µM. The “expression of p21^Waf1/Cip1” value with p21^Waf1/Cip1 was “increased”. Further, in the series on HCT116 cells, the “cytotoxicity in HCT116 relative to inhibitory concentration in normal (Vero) cell line” value is “two-fold lower concentration” and the IC50 was 27.4 ± 1.8 µM. Besides, the HDAC8 expression entry in the series on HDAC8 is given as “significant reduction”. The same compound displayed an IC50 in series [2] of 70.2 ± 4.3 µM.
